Reference: patent publication US20090270447A1, “2-Aryl-and 2-Heteroarylthiazolyl Compounds, Methods for Their Preparation and Use Thereof” (Wyeth, priority 2008, published 2009)

Legend:
[1] = system: securin "knock out" cells F3 (Securin−/−); assay: Growth inhibition of securin knock out cells F3 (SRB, 5 days); type: cell-based; conditions: for IC50: 120 h, securin knock out F3 cells, 5 days, SRB; for Selectivity Ratio F3: IC50 HCT116 / IC50 securin KO F3
Method: (§1) IC50 analysis was performed for selected fused heterobicyclic 2-aryl or 2-heteroarylthiazolyl compounds that were tested on HCT116 cells and Securin “knock out” cell lines.
(§2) Cell Culture—HCT116 and securin “knock out” cells. HCT116 and securin “knock out” cells (D8 and F3) were grown in RPMI+5% fetal bovine serum and gentamycin. They were maintained in a humidified 37° C. incubator with 5% CO2. Since the securin “knock out” cells have active chromosomal instability, cells were used at a low passage number of 2-13 passages. At or before passage 13 a new vial of cells was thawed and used for the screen. Cell seeding—HCT116 cells and securin “knock out” cells were trypsinized and suspenended in RPMI+5% FBS at a density of 27,000 cells/mL. HCT116 and securin “knock out” cells were seeded separately in wells of a 96-well plate (Falcon Cat # 35-3872) at a cell density of 4000 cells per well. Cells were seeded in 150 μL of RPMI media containing 5% FBS and gentamycin. Cell seeding was performed under aseptic conditions. Cells were allowed to attach and grow overnight in a humidified 37° C. incubator.
(§3) Compound Dilution and Dispensation. A series of stock solutions, 10 mg/ml of 2-aryl- or 2-heteroarylthiazolyl compounds to be tested, were brought to room temperature. The compounds were diluted 1:50 in RPMI+5% FBS (Highest concentration 200 μg/mL). The compounds were then serially diluted 1:3 across a deep-well titration plate resulting in final concentrations in the plate of 200, 66.7, 22.2, 7.4, 2.4, 0.8 0.27, 0.091, 0.03, 0.01, and 0.0034 μg/mL with one well left without a compound. 50 μL of this dilution series was added to the 150 μL of cells to result in a final concentration of compound in with the cells of 50, 16.6, 5.5, 1.8, 0.6, 0.2, 0.068, 0.023, 0.0076, 0.0025, and 0.00084 μg/mL. The dilution and addition of compounds to the plates is performed using a Multimek 96 Robot (Beckman Coulter).
(§4) Incubation and analysis. After dosing, the cells in the 96 well plates were returned to the humidified 37° C. incubator. The compounds remained on the cells for 5 days. After 5 days, the cells were fixed to the plates with the addition of 50 μL of 50% (vol/vol) Trichloro Acetic Acid ([…]). The cells were fixed at 4° C. for 1 hour. The plates were washed 5 times in distilled water and allowed to dry. The cells were stained with 0.4% sulforhodamine B (Sigma) in 1% acetic acid. The cells were stained for 15 minutes at room temperature. The plates were then washed 3 times in 1% acetic acid. The plates were dried and the dye was solubilized in 10 mM Tris at pH 8.0. The plates were read on the Absorbence 560 setting on a Victor^2 V Model 1420 Multilabel HTS counter (Perkin Elmer).
(§5) Analysis of Results—IC50 data. Absorbence data was read off of the Victor and was converted to a percentage of the control (untreated) values. IC50 values were graphed and the point at which a 50% inhibition of the control level was determined. […] If the model was not able to determine an IC50, the IC50 was assigned to the lowest concentration that gives a 50% or greater decrease in absorbence compared to control levels. If the calculated IC50 value for a cell line exceeds the top concentration for the assay (typically 50 μg/mL), the assay was scored as >50.
(§6) Selectivity Ratio. The Selectivity Ratio is the ratio of IC50s between the parent cell line and the knock out cell line and is always a positive number and is typically an integer.

[2] = system: xenografts of a human breast carcinoma cell line (MDA-MB-361); assay: In-vivo activity in tumor xenografts; conditions: days 1 through 20
Method: Selected fused heterobicyclic 2-aryl- or 2-heteroarylthiazolyl compounds of formula I were tested for their activity in a securin parental cell line (HCT116 FB) and a securin knockout (KO) cell line. […] The in-vivo activity of selected fused heterobicyclic 2-arylarylthiazolyl compounds of formula I was studied in cells growing as xenografts in athymic (nude) mice. The effect of Examples 5-7 and 10 was studied in xenografts of a human breast carcinoma cell line (MDA-MB-361).
In-vivo Activity in Tumor Xenografts. The effectiveness of Examples 5-7 versus Vincristine at controlling tumor growth was studied and the results are summarized in Table 2 and FIG. 1. The 2-arylthiazolyl compounds were formulated 0.5% Methocel™ (methylcellulose) and 0.4% Tween 80™ (polysorbate-80 and oleic acid) and administered daily orally (PO), by gavage or intraperiotenially (IP) by syringe. Tumor mass [(length×width^2)/2] was determined every 7 days. Inhibition of tumor growth was calculated relative to conventional (vehicle treated) controls.

[3] = system: securin "knock out" cells D8 (Securin−/−); assay: Growth inhibition of securin knock out cells D8 (SRB, 5 days); type: cell-based; conditions: for IC50: 120 h, securin knock out D8 cells, 5 days, SRB; for Selectivity Ratio D8: IC50 HCT116 / IC50 securin KO D8
Method: as §1, §2, §3, §4, §5, §6

[4] = system: HCT116 cells (Securin+/+, securin parental cell line HCT116 FB); assay: Growth inhibition of securin parental cells (SRB, 5 days); type: cell-based; conditions: Homo sapiens, HCT-116, 120 h
Method: as §1, §2, §3, §4, §5

Compound	IC50 [1]	Selectivity Ratio F3 [1]	% T/C Day 7 ([2]; 10 mg/kg/dose PO)	Relative Tumor Growth Day 7 ([2]; 10 mg/kg/dose PO)	% T/C Day 14 ([2]; 10 mg/kg/dose PO)	Relative Tumor Growth Day 14 ([2]; 10 mg/kg/dose PO)	% T/C Day 21 ([2]; 10 mg/kg/dose PO)	Relative Tumor Growth Day 21 ([2]; 10 mg/kg/dose PO)	IC50 [3]	Selectivity Ratio D8 [3]	IC50 [4]	S/T = # of Survivors/# of Treated on Day +21 post tumor staging ([2]; 5 mg/kg/dose PO)	% T/C Day 7 ([2]; 5 mg/kg/dose PO)	Relative Tumor Growth Day 7 ([2]; 5 mg/kg/dose PO)	% T/C Day 14 ([2]; 5 mg/kg/dose PO)	Relative Tumor Growth Day 14 ([2]; 5 mg/kg/dose PO)	% T/C Day 21 ([2]; 5 mg/kg/dose PO)	Relative Tumor Growth Day 21 ([2]; 5 mg/kg/dose PO)
OC1CNCc2nc(-c3ccc(N4CCCC4)cc3)sc21 [Example 5, (7R,7S)-2-(4-pyrrolidin-1-yl-phenyl)-4,5,6,7-tetrahydro[1,3]thiazolo[4,5-c]pyridin-7-ol]	0.93 µM	25	96%	1.59	78%	3.92	86%	7.86	0.68 µM	34	22.8 µM							
O[C@H]1CNCc2nc(-c3ccc(N4CCCC4)cc3)sc21 [Example 7, (7S)-2-(4-pyrrolidin-1-yl-phenyl)-4,5,6,7-tetrahydro[1,3]thiazolo[4,5-c]pyridin-7-ol]	9.67 µM	4	93%	1.54	113%	5.64	122%	11.17	21.6 µM	2	36.4 µM	10/10	95%	1.57	86%	4.30	81%	7.45
O[C@@H]1CNCc2nc(-c3ccc(N4CCCC4)cc3)sc21 [Example 6, (7R)-2-(4-pyrrolidin-1-yl-phenyl)-4,5,6,7-tetrahydro[1,3]thiazolo[4,5-c]pyridin-7-ol]	0.429 µM	34	106%	1.76	81%	4.06	80%	7.32	0.45 µM	32	14.5 µM	9/10	88%	1.46	74%	3.72	71%	6.53
